Measurements from PMC9415608, “Design, Synthesis and Biological Investigation of 2-Anilino Triazolopyrimidines as Tubulin Polymerization Inhibitors with Anticancer Activities” (Pharmaceuticals, 2022).
Read-outs that look alike come from different tables or passages of the source.

Experiments:
[1] = system: MDA-MB-231, HeLa, A549 and HT-29 cancer cell lines; assay: Antiproliferative activity stated across the panel of cancer cell lines; assay type: cell-based, human; conditions: for IC50: Homo sapiens
Protocol: All the cell lines used in this paper were of human origin and purchased from the American Type Culture Collection (ATCC, Manassas, VA, USA). Colon adenocarcinoma (HT-29), non-small cell lung carcinoma (A549), cervix carcinoma (HeLa) and breast adenocarcinoma (MDA-MB-231) cells were grown in RPMI (HT29) or DMEM (A549, HeLa, MDA-MB-231) medium (Gibco, Milano, Italy). Both media were supplemented with 115 units/mL of penicillin G (Gibco, Milano, Italy), 115 μg/mL of streptomycin (Invitrogen, Milano, Italy) and 10% fetal bovine serum (Invitrogen, Milano, Italy). All cell lines were grown at 37 °C in a humidified 5% CO2 atmosphere. The cells were grown in 2 mL of complete medium.
Stock solutions were prepared for each compound by dissolving in DMSO at the final concentration of 10 mM.
The cells were seeded in 96-well plates at the appropriate density for each cell line. The respective cell line densities used for the antiproliferative assay were HeLa and HT29 5000 cells/well, A549 4000 cells/well and MDA-MB-231 7000 cells/well. The total volume of medium was 100 µL. After 24 h, the cells were treated by performing serial 5-fold dilutions of the tested compounds starting from a concentration of 10 μM. All experimental conditions were tested in triplicate for statistical analysis. After 72 h of incubation, 10 μL of 100 μg/mL resazurin solution was added to each well and the plate was re-incubated for 3–4 h. The fluorescence of the wells in each plate was monitored using a Spark 10M spectrophotometer (Tecan Group Ltd., Mannedorf, Switzerland) with a 535 nm excitation wavelength and a 600 nm emission wavelength.

HeLa cells = assay: Apoptosis assay, annexin-V-FITC/PI flow cytometry; assay type: cell-based, human
Protocol: The quantification of the apoptosis induced by the test compounds was carried out by flow cytometric analysis using the Annexin-V Fluos kit (Roche Diagnostics, Rotkreuz, Switzerland) following the manufacturer’s instructions. The HeLa cells treated with the test compounds for different incubation times and at the indicated concentrations were then labeled with annexin V/FITC and PI and analyzed with Coulter Cytomics FC500 (Beckman Coulter) in the FL1 and FL3 channel, respectively.

ATR = assay: Western blot analysis; assay type: cell-based, human; conditions: HeLa, 24 h
Protocol: (§1) Hela cells treated with the test compounds were harvested by centrifugation and then lysed with 0.1% (v/v) Triton X-100 containing RNase A at 0 °C. The protein content of the solutions was measured and analyzed as described previously. The antibodies directed against cyclin B, cdc2 (Y15), ATR,Bcl-2, cleaved caspase-9 (D330) and actin were purchased from Cell Signaling. The membranes were visualized using ECL select (GE Healthcare, Uppsal, Sweden), and images were acquired using an Uvitec-Alliance imaging system.

Bcl-2 = assay: Western blot analysis; assay type: cell-based, human; conditions: HeLa, 24 h
Protocol: as §1

cdc2 (Y15) = assay: Western blot analysis; assay type: cell-based, human; conditions: HeLa, 24 h
Protocol: as §1

cleaved caspase-9 (D330) = assay: Western blot analysis; assay type: cell-based, human; conditions: HeLa, 24 h, 25 and 50 nM
Protocol: as §1

cyclin B = assay: Western blot analysis; assay type: cell-based, human; conditions: HeLa, 24 h
Protocol: as §1

[2] = system: Wild-type AB zebrafish embryos; assay: Drug toxicity assessment on zebrafish embryos; assay type: in vivo, Zebrafish (Danio rerio); conditions: 6 hpf to 72 hpf
Protocol: Zebrafish (Danio rerio) were obtained, staged and raised as described previously and maintained according to the OPBA of the Istituto di Ricerca Pediatrica guidelines. All procedures were conducted following the recommendations and the guidelines of the Animal Use Ethics Committee concerning the protection of animals used for scientific purposes.
Wild-type AB zebrafish embryos were treated with chemicals from shield stage (6 hpf) to larval stage (72 hpf) in a 12-well plate, by adding 20 larvae/well for each experimental condition. The zebrafish embryos were treated with compound 3d at the concentration of 30 nm and 300 nM. These concentrations were selected on the basis of the IC50 found above in HeLa cells. The drugs were added directly to the fish water diluted directly from the stock solution in DMSO. […] Subsequently, the treated embryos were kept at a constant temperature (28.5 °C). Embryos are monitored daily through a stereo microscope (Nikon SMZ745T; Nikon, Japan) and the morphological changes as well as the number of dead embryos were evaluated and recorded.

Compound: COc1cc(-c2ccnc3nc(Nc4ccc(C)cc4)nn23)cc(OC)c1OC [Compound 3d, N-(p-Tolyl)-7-(3,4,5-trimethoxyphenyl)-[1,2,4]triazolo[1,5-a]pyrimidin-2-amine]
- fold less active than 2a as antiproliferative agent ([1]; HeLa, HT-29 and A549 cells): 1-2 fold
- IC50 ([1]; in the four tumor cell lines examined, read-out: IC50s, range): 30 to 430 nM
- IC50 ([1]; on HeLa, A549 and HT-29 cancer cells, read-out: IC50 values, range): 30 to 43 nM
- fold more potent than the 7-(3′,4′,5′-trimethoxyanilino) counterpart ([1]; antiproliferative agent): 4–30 fold
- necrotic cells (A−/PI+) (HeLa cells; 50 nM, long incubation times): about 25%
- induction of apoptosis (HeLa cells; HeLa, 24 or 48 h): induced, in a concentration- and time-dependent manner, apoptosis
- ATR phosphorylation (Ser428) (ATR): considerable increase in ATR phosphorylation (Ser428)
- Bcl-2 expression (Bcl-2): reduction in Bcl-2 expression starting at 10 nM
- cdc2 phosphorylation (Y15) (cdc2 (Y15)): significant reduction in cdc2 phosphorylation (Y15)
- caspase-9 cleavage (cleaved caspase-9 (D330)): appearance of the cleaved fragment of caspase-9
- cyclin B expression (cyclin B): increase in cyclin B expression
- toxicity to zebrafish embryos ([2]; 30 nM in fish water): no morphological abnormalities or embryonic lethality
- toxicity to zebrafish embryos ([2]; 300 nM in fish water, edema re-absorbed within the next 24 h): small yolk sac edema in the majority of 48 hpf embryos
